Experimental data: ChEMBL document CHEMBL1129678, “Structure-activity relationships in a series of 2(1H)-quinolones bearing different acidic function in the 3-position: 6,7-dichloro-2(1H)-oxoquinoline-3-phosphonic acid, a new potent and selective AMPA/kainate antagonist with neuroprotective properties” (J Med Chem, 1996)
Calls of active or inactive are those of the source. The rule behind the calls is not given here.

Experiments:
Glutamate NMDA receptor [1] = experiment: Antagonistic activity against N-methyl-D-aspartate glutamate receptor 1 in Xenopus oocytes; assay type: functional, cell-based; conditions: oocyte
[2] = molecular target: Glutamate receptor ionotropic, kainate; experiment: Antagonistic activity against rat ionotropic glutamate receptor ionotropic kainate in xenopus oocytes; assay type: functional, cell-based; conditions: oocyte
[3] = Selectivity between AMPA/kainate receptor and NMDA/glycine receptor; design: reference not given here
Mus musculus [4] = experiment: Effective dose of a compound to […] 50% audiogenic seizures in DBA/2 mice when administered by po (mg/kg); Not active; assay type: functional, organism-based
Mus musculus [5] = experiment: Effective dose required to protect 50% of DBA/2 mice from audiogenic seizures, after ip administration; assay type: functional
Gerbillinae [6] = experiment: %Protection against transient global ischemia in adult Mongolian gerbil at dose 30 mg/kg by ip administration tested against 6; assay type: functional; conditions: route intraperitoneal
Gerbillinae [7] = experiment: %Protection against transient global ischemia in adult Mongolian gerbil at dose 10 mg/kg by ip administration tested against 10; assay type: functional; conditions: route intraperitoneal
Glutamate NMDA receptor [8] = experiment: Inhibitory activity against [3H]glycine binding site of N-methyl-D-aspartate glutamate receptor 1 in rat cortical membranes; assay type: cell membranes, Membrane
[9] = molecular target: AMPA receptor (Rattus norvegicus); experiment: Inhibitory activity against [3H]AMPA binding to rat cortical membranes
Gerbillinae [10] = experiment: %Protection against transient global ischemia in adult Mongolian gerbil at dose 30 mg/Kg by ip administration tested against 6; assay type: functional
Gerbillinae [11] = experiment: %Protection against transient global ischemia in adult Mongolian gerbil at dose 10 mg/Kg by ip administration tested against 10; assay type: functional
Mus musculus [12] = experiment: Effective dose required to protect 50% of DBA/2 mice from audiogenic seizures, after po administration; assay type: functional
Mus musculus [13] = experiment: Effective dose of a compound to […] 50% audiogenic seizures in DBA/2 mice when administered by ip (mg/Kg); assay type: functional

Row | Compound | IC50 (Glutamate NMDA receptor [1]) [µM] | IC50 [2] [µM] | Selectivity [3] | other results
1 | OB(O)c1cc2c(Cl)cc(Cl)cc2nc1O | > 300 | > 100 | – | –
2 | O=[N+]([O-])c1cc2cc(-c3nn[nH]n3)c(O)nc2cc1[N+](=O)[O-] | 20 | 0.6 | 33 | –
3 | O=[N+]([O-])c1ccc2cc(P(=O)(O)O)c(O)nc2c1 | 57 | 1.4 | 41 | –
4 | NS(=O)(=O)c1cccc2c1c([N+](=O)[O-])cc1nc(O)c(O)nc12 [NBQX] | 255 | – | – | ED50 (Mus musculus [4]): inactive; ED50 (Mus musculus [5]): 8 mg/kg; Protection (Gerbillinae [6]): 50%; Protection (Gerbillinae [7]): 40%; IC50 (Glutamate NMDA receptor [8]): > 500 µM
5 | O=C(NO)c1cc2ccc([N+](=O)[O-])cc2nc1O | > 100 | 10 | > 10 | –
6 | O=c1[nH]c2cc([N+](=O)[O-])ccc2cc1-c1cc(O)n[nH]1 | > 100 | > 30 | – | –
7 | O=P(O)(O)c1cc2cc(F)c(F)cc2nc1O | 111 | 65 | 1.71 | –
8 | O=c1[nH]c2cc(-n3ccnc3)c([N+](=O)[O-])cc2[nH]c1=O [YM-90K] | 30.5 | 0.3 | 102 | –
9 | O=C(O)c1cc2cc([N+](=O)[O-])c([N+](=O)[O-])cc2nc1O | 0.57 | 0.3 | 1.9 | ED50 (Mus musculus [5]): > 50 mg/kg; IC50 [9]: 0.15 µM; IC50 (Glutamate NMDA receptor [8]): 1.8 µM
10 | O=[N+]([O-])c1ccc2cc(-c3nn[nH]n3)c(O)nc2c1 | > 16 | 3 | > 5 | –
11 | O=[N+]([O-])c1ccc2cc(-c3nnc(O)o3)c(O)nc2c1 | > 100 | > 100 | – | –
12 | O=C(Nc1nn[nH]n1)c1cc2ccc([N+](=O)[O-])cc2nc1O | > 16 | 100 | > 0.16 | –
13 | O=C(O)c1cc2c(Cl)cc(Cl)cc2nc1O | 0.65 | 8 | 0.08 | –
14 | O=P(O)(OCC1CCCC1)c1cc2cc(Cl)c(Cl)cc2nc1O | 74 | 15 | 5 | –
15 | O=C(O)CSc1cc2ccc([N+](=O)[O-])cc2nc1O | > 100 | 5 | > 20 | –
16 | O=P(O)(O)c1cc2cc(Cl)c(Cl)cc2nc1O | – | – | 39.8 | Protection (Gerbillinae [10]): 100%; Protection (Gerbillinae [11]): 40%; ED50 (Mus musculus [5]): 19 mg/kg; ED50 (Mus musculus [12]): 45 mg/kg
17 | CCOP(=O)(O)c1cc2cc(Cl)c(Cl)cc2nc1O | 40 | 15 | 2.6 | –
18 | NC(=O)c1cc2ccc([N+](=O)[O-])cc2nc1O | > 300 | > 300 | – | –
19 | O=c1[nH]c2cc(Cl)c(Cl)cc2cc1P(=O)(O)O | 83.5 | 2.1 | – | IC50 [9]: 0.9 µM; IC50 (Glutamate NMDA receptor [8]): 111 µM
20 | O=[N+]([O-])c1cc2cc(P(=O)(O)O)c(O)nc2cc1[N+](=O)[O-] | 51.5 | 0.15 | 343 | –
21 | O=C(O)c1cc2cc(Cl)c(Cl)cc2nc1O | 0.81 | 10 | 0.08 | –
22 | O=C(O)c1cc2ccc([N+](=O)[O-])cc2nc1O | 6.5 | 1.3 | 5 | –
23 | O=P(O)(O)c1cc2c(Cl)cc(Cl)cc2nc1O | 30 | 4 | 7.5 | ED50 (Mus musculus [13]): > 50 mg/kg; IC50 [9]: 3.5 µM; IC50 (Glutamate NMDA receptor [8]): 5.1 µM
24 | CP(=O)(O)c1cc2c(Cl)cc(Cl)cc2nc1O | 51 | > 100 | < 0.5 | –
25 | O=[N+]([O-])c1cc2cc(NS(=O)(=O)C(F)(F)F)c(O)nc2cc1[N+](=O)[O-] | 0.16 | 0.16 | 1 | ED50 (Mus musculus [5]): > 50 mg/kg; IC50 [9]: 0.09 µM; IC50 (Glutamate NMDA receptor [8]): 1.38 µM
